Experimental findings from patent publication US5750531A, “Pyrimidine derivatives and processes for the preparation thereof” (Yuhan Corporation, priority 1994, dated 1998) are described below.

Where a name gives a salt, the structure may show the parent alone.

Assay [1] addresses proton pump(H^+ /K^+ ATPase). The assay is described as follows: Inhibition of proton pump(H^+ /K^+ ATPase) activity. It counts as biochemical. As to conditions: pH 6.0, 37° C., 30 minutes preincubation and 30 minutes reaction; read-out: IC50 Test compound. The protocol:
Test 1: Inhibition of proton pump(H^+ /K^+ ATPase) activity
A proton pump enzyme source was prepared by the same method as in Experiment 1-1 of WO 94/14795. Further, the inhibitory effect of proton pump activity was measured by the same method as in Experiment 1-2 of WO 94/14795.
Namely, the proton pump activity stimulated by Mg^++ was used as a negative comparative group, and the activity stimulated by Mg^++ and K^+ was used as a positive comparative group. The comparative compound was omeprazole.
Test tubes were divided into 4 groups: Group 1 as negative comparative group(n=3), Group 2 as positive comparative group(n=3), Group 3(n=5×2) to be administered with the compound of the present invention and Group 4(n=5×2) to be administered with the comparative compound.
The inhibitory effects of Groups 3 and 4 on proton pump activity were measured by employing the compound prepared in Example and omeperazole, respectively, each of which was dissolved in dimethylsulfoxide at 5 different concentrations.
To each of Groups 1, 2, 3 and 4 were added 100 μl of magnesium chloride(40 mM) dissolved in 40 mM Tris-HCl buffer(pH 6.0) and 100μ of the enzyme source. Then, 50μ of potassium chloride(50 mM) and 50 μl of ammonium chloride(6 mM) dissolved in 40 mM Tris-HCl buffer(pH 6.0) were added to all groups except for Group 1.
10 μl of dimethylsulfoxide was added to each of Groups 1 and 2; and to Group 3 was added 10 μl of the solution in which the compound prepared in Example was dissolved in dimethylsulfoxide at 5 different concentrations(n=5×2). To Group 4, 10 μl of the solution prepared by dissolving omeprazole in dimethylsulfoxide at 5 different concentrations(37.6, 21.4, 12.2, 7.0 and 4.0 μM) was added(n=5×2). 40 mM Tris-HCl buffer(pH=6.0) was added thereto so as to make the total volume 400 μl.
Thereafter, the test tubes of each Group were placed at 37° C. for 30 minutes for the preincubation. 100 μl of ATP solution (6.6 mM) was added until the reaction volume became 500 μl. After the reaction was carried out at 37° C. for 30 minutes, 25% cold trichloroacetic acid was added to terminate the enzyme reaction. The released inorganic phosphate was measured by an automatic analyzer(Express 550, Corning).
The difference between Group 1 and Group 2 represents the proton pump activity activated by K^+ only. The inhibition percentages of Groups 3 and 4 were calculated from Litchfield-wilcoxon equation[see, e.g., J. pharmacol. Exp. Ther., 96, 99(1949)]. The concentrations of the test compounds which inhibit 50% of the proton pump activity are represented as IC50 in Table 1.

The next assay deals with gastric secretion. Nature of the assay: Inhibition of gastric secretion (pylorus ligation, Shay method). The conditions noted are these: 20 mg/kg intraduodenally, 5 hours; for Rel. Conc.: acid concentration relative to omeprazole; for Relative Acid Output: acid output relative to omeprazole; for Rel. Vol.: gastric juice volume relative to omeprazole. It counts as in vivo, Male Sprague-Dawley rats. The method, then: Inhibition of gastric secretion […] Under ether anesthesia, the abdomen was incised, and the pylorus was ligated. […] After closing the abdominal cavity, the rats were placed for 5 hours and then killed by cervical dislocation. The stomach was extracted to obtain gastric juice. The gastric juice was centrifuged at 1,000 g to remove precipitates. The amount and acidity of the gastric juice were measured. Relative volumes, relative acid concentrations and relative acid outputs of the test compounds were calculated from equations(I), (II) and (III) and the results are shown in Table 2. […] Group 3) (II) […] (III)

As for `CC1c2ccccc2CCN1c1nc(Nc2ccc(F)cc2)nc2c1CCC2` (stereo not drawn) [Example 30, hydrochloride], the 50% inhibitory concentration (IC50) in assay [1] was roughly 8.4 µM. In addition, in the assay with gastric secretion, the Rel. Conc. came out at 0.2, the “Relative Acid Output” value is 0.39 and the Rel. Vol. was found to be 0.33.

For the molecule `CC1c2ccccc2CCN1c1nc(N(C)c2ccccc2)nc2c1CCC2` (stereo not drawn) [Example 31, 2-(N-methylphenylamino)-4-(1-methyl-1,2,3,4-tetrahydroisoquinolin-2-yl)cyclopenta[d]pyrimidine hydrochloride], the IC50 in assay [1] was roughly 15 µM. In addition, in the assay on gastric secretion, the Rel. Conc. was found to be 0.21, the “Relative Acid Output” value was 0.74 and the Rel. Vol. was 0.83.

For the molecule `Cc1cc(F)ccc1Nc1nc2c(c(N3CCc4ccccc4C3C)n1)CCCC2.Cl` (stereo not drawn) [Example 32, 2-(2-methyl-4-fluorophenylamino)-4-(1-methyl-1,2,3,4-tetrahydroisoquinolin-2-yl)-5,6,7,8-tetrahydroquinazoline hydrochloride], the half-inhibitory concentration (IC50) in assay [1] is 1.2 µM. In the assay on gastric secretion, the Rel. Conc. was determined as 0.97, the “Relative Acid Output” value is on record as 0.91 and the Rel. Vol. is 1.03.

For the molecule `Cc1cc(N2CCc3ccccc3C2)nc(Nc2ccc(F)cc2C)n1.Cl` [Example 34, 6-methyl-2-(2-methyl-4-fluorophenylamino)-4-(1,2,3,4-tetrahydroisoquinolin-2-yl)pyrimidine hydrochloride], the half-inhibitory concentration (IC50) in assay [1] is 1 µM. For the same molecule, in the assay on gastric secretion, the Rel. Conc. came out at 1, the “Relative Acid Output” value is listed as 0.99 and the Rel. Vol. is 0.99.

In the case of `Cc1cc(N2CCc3ccccc3C2)nc(Nc2ccc(F)cc2)n1.Cl` [Example 35, 6-methyl-2-(4-fluorophenylamino)-4-(1,2,3,4-tetrahydroisoquinoline-2-yl)pyrimidine hydrochloride], in assay [1], the concentration for half-maximal inhibition (IC50) was found to be 2.5 µM. In the assay on gastric secretion, the Rel. Conc. was 0.84, the “Relative Acid Output” value was found to be 0.94 and the Rel. Vol. was found to be 1.05.

`CCc1cc(N2CCc3ccccc3C2)nc(Nc2ccc(F)cc2C)n1.Cl` [Example 37, 6-ethyl-2-(2-methyl-4-fluorophenylamino)-4-(1,2,3,4-tetrahydroisoquinolin-2-yl)pyrimidine hydrochloride]: the IC50 in assay [1] was 0.7 µM. Besides, in the assay on gastric secretion, the Rel. Conc. is 0.42, the “Relative Acid Output” value came out at 0.82 and the Rel. Vol. is 0.82.

On to `CCc1cc(N2CCc3ccccc3C2)nc(Nc2ccc(F)cc2)n1.Cl` [Example 38, 6-ethyl-2-(4-fluorophenylamino)-4-(1,2,3,4-tetrahydroisoquinolin-2-yl)pyrimidine hydrochloride], for which the IC50 in assay [1] amounted to 2.2 µM. Moreover, in the assay on gastric secretion, the Rel. Conc. was found to be 0.37, the “Relative Acid Output” value came out at 0.74 and the Rel. Vol. worked out at 0.74.

Regarding `CCc1cc(N2CCc3ccccc3C2)nc(N(C)c2ccccc2)n1.Cl` [Example 39, 6-ethyl-2-(N-methylphenylamino)-4-(1,2,3,4-tetrahydroisoquinolin-2-yl)pyrimidine hydrochloride], the half-maximal inhibitory concentration (IC50) in assay [1] is greater than 15 µM. Also, in the assay with gastric secretion, the Rel. Conc. was found to be 0.18, the “Relative Acid Output” value amounted to 0.56 and the Rel. Vol. was 0.58.

As for `CCc1cc(N2CCc3ccccc3C2)nc(Nc2ccccc2C)n1.Cl` [Example 40, 6-ethyl-2-(2-methylphenylamino)-4-(1,2,3,4-tetrahydroisoquinolin-2-yl)pyrimidine hydrochloride], in assay [1], the IC50 came to 0.7 µM. Besides, in the assay on gastric secretion, the Rel. Conc. was determined as 0.36, the “Relative Acid Output” value turned out to be 0.74 and the Rel. Vol. was determined as 0.71.

For `Cc1cc(F)ccc1Nc1nc(C)c(C)c(N2CCc3ccccc3C2)n1.Cl` [Example 41, 5,6-dimethyl-2-(2-methyl-4-fluorophenylamino)-4-(1,2,3,4-tetrahydroisoquinolin-2-yl)pyrimidine hydrochloride], the IC50 in assay [1] is 0.6 µM. In the assay with gastric secretion, the Rel. Conc. turned out to be 1.87, the “Relative Acid Output” value was 1.12 and the Rel. Vol. was 0.94.

As for `Cc1nc(Nc2ccc(F)cc2)nc(N2CCc3ccccc3C2)c1C.Cl` [Example 42, 5,6-dimethyl-2-(4-fluorophenylamino)-4-(1,2,3,4-tetrahydroisoquinolin-2-yl)pyrimidine hydrochloride], the IC50 in assay [1] came to 1.5 µM. In the assay with gastric secretion, the Rel. Conc. amounted to 1.4, the “Relative Acid Output” value was found to be 1.15 and the Rel. Vol. was 1.15.

Regarding `CCc1nc(Nc2ccc(F)cc2C)nc(N2CCc3ccccc3C2)c1C.Cl` [Example 44, 5-methyl-6-ethyl-2-(2-methyl-4-fluorophenylamino)-4-(1,2,3,4-tetrahydroisoquinolin-2-yl)pyrimidine hydrochloride], in assay [1], the half-inhibitory concentration (IC50) was roughly 11.3 µM. Further, in the assay with gastric secretion, the Rel. Conc. amounted to 0.33, the “Relative Acid Output” value was determined as 0.41 and the Rel. Vol. was 0.27.

As for `CCc1nc(Nc2ccc(F)cc2)nc(N2CCc3ccccc3C2)c1C.Cl` [Example 45, 5-methyl-6-ethyl-2-(4-fluorophenylamino)-4-(1,2,3,4-tetrahydroisoquinolin-2-yl)pyrimidine hydrochloride], in assay [1], the IC50 was 3.1 µM. Also, in the assay with gastric secretion, the Rel. Conc. stood at 0.75, the “Relative Acid Output” value came out at 0.89 and the Rel. Vol. worked out at 0.84.

On to `CCc1nc(N(C)c2ccccc2)nc(N2CCc3ccccc3C2)c1C.Cl` [Example 46, 5-methyl-6-ethyl-2-(N-methylphenylamino)-4-(1,2,3,4-tetrahydroisoquinolin-2-yl)pyrimidine hydrochloride], for which the IC50 in assay [1] was roughly 19.2 µM. For the same molecule, in the assay on gastric secretion, the Rel. Conc. amounted to 0.44, the “Relative Acid Output” value is on record as 0.74 and the Rel. Vol. was found to be 0.73.

As to `Cc1cc(F)ccc1Nc1nc2c(c(N3CCc4ccccc4C3)n1)CCC2` [Example 47, 2-(2-methyl-4-fluorophenylamino)-4-(1,2,3,4-tetrahydroisoquinolin-2-yl)cyclopenta[d]pyrimidine hydrochloride], the 50% inhibitory concentration (IC50) in assay [1] was roughly 5 µM. In the assay with gastric secretion, the Rel. Conc. came to 0.14, the “Relative Acid Output” value is 0.38 and the Rel. Vol. worked out at 0.38.

Take `Cc1cc(F)ccc1Nc1nc2c(c(N3CCc4ccccc4C3)n1)CCCC2.Cl` [Example 48, 2-(2-methyl-4-fluorophenylamino)-4-(1,2,3,4-tetrahydroisoquinolin-2-yl)-5,6,7,8-tetrahydroquinazoline hydrochloride]: the IC50 in assay [1] was roughly 5.5 µM. Besides, in the assay on gastric secretion, the Rel. Conc. worked out at 0.04, the “Relative Acid Output” value came out at 0.16 and the Rel. Vol. is 0.17.

With `Cl.Fc1ccc(Nc2nc3c(c(N4CCc5ccccc5C4)n2)CCCC3)cc1` [Example 49, 2-(4-fluorophenylamino)-4-(1,2,3,4-tetrahydroisoquinolin-2-yl)-5,6,7,8-tetrahydroquinazoline hydrochloride], the IC50 in assay [1] is roughly 10.8 µM. For the same molecule, in the assay on gastric secretion, the Rel. Conc. turned out to be 0.02, the “Relative Acid Output” value was 0.16 and the Rel. Vol. worked out at 0.2.

Turning to `CN(c1ccccc1)c1nc2c(c(N3CCc4ccccc4C3)n1)CCCC2.Cl` [Example 50, 2-(N-methylphenylamino)-4-(1,2,3,4-tetrahydroisoquinolin-2-yl)-5,6,7,8-tetrahydroquinazoline hydrochloride], in assay [1], the IC50 is roughly 16.9 µM. In the assay on gastric secretion, the Rel. Conc. stood at 0.29, the “Relative Acid Output” value is listed as 0.66 and the Rel. Vol. is 0.72.
